SMILES	melting point
CCOC(=O)CCc1cc(-c2ccncc2)sc1-c1ccncc1.Cl.Cl	205 to 208 °C (dec.)
O=S(=O)(c1cc(-c2ccncc2)sc1-c1ccncc1)N1CCCC1 [Example 25, 2,5-Di(4-pyridyl)-3-(pyrrolidine-1-sulfonyl)thiophene]	193 to 195 °C
CC(=O)c1c(-c2ccccc2)sc(-c2ccncc2)c1C [Example 19, 3-Acetyl-4-methyl-2-phenyl-5-(4-pyridyl)thiophene]	111 to 112 °C
Cc1c(-c2ccncc2)sc(-c2ccncc2)c1CNO.Cl.Cl.Cl	219 to 222 °C (dec.)
CC(=O)c1sc(-c2ccncc2)c(C)c1-c1ccncc1 [Example 13, 2-Acetyl-4-methyl-3,5-di(4-pyridyl)thiophene]	117 to 118 °C
Cc1c(-c2ccncc2)oc2c1C(=O)CCC2 [Example 2, 3-Methyl-4-oxo-2-(4-pyridyl)-4,5,6,7-tetrahydrobenzofuran]	136 to 138 °C
Cc1c(-c2ccncc2)oc2c1C(=O)C(C)(C)CC2 [Example 6, 4-Oxo-2-(4-pyridyl)-3,5,5-trimethyl-4,5,6,7-tetrahydrobenzofuran]	133 to 134 °C
Cc1c(-c2ccncc2)oc2c1C(=O)OC(C)C2 (stereo not shown) [Example 10, 6,7-Dihydro-3,6-dimethyl-2-(4-pyridyl)-furo[3,2-c]pyran-4-one]	157 to 160 °C
CC(=O)c1c(C)sc(-c2ccncc2)c1C [Example 18, 3-Acetyl-2,4-dimethyl-5-(4-pyridyl)thiophene]	80 to 81 °C
CC(=O)c1c(-c2ccncc2)sc(Cl)c1C [Example 17, 3-Acetyl-5-chloro-4-methyl-2-(4-pyridyl)thiophene]	60 to 61 °C
CC(=O)c1cc(-c2ccncc2)sc1Oc1cccc(Oc2ccc(F)cc2)c1.Cl	251 to 253 °C
CC1(C)CCC(=O)c2c1oc(-c1ccncc1)c2-c1ccccc1 [Example 12, 7,7-Dimethyl-3-phenyl-4-oxo-2-(4-pyridyl)4,5,6,7-tetrahydrobenzofuran]	156 to 157 °C
Cc1c(-c2ccncc2)sc(-c2ccncc2)c1C(C)O (stereo not shown) [Example 21, 2,5-Di(4-pyridyl)-3-(1-hydroxyethyl)-4-methylthiophene]	155 to 157 °C
CC(=O)c1cc(-c2ccncc2)sc1-c1ccncc1 [Example 24, 3-Acetyl-2,5-di(4-pyridyl)thiophene]	117 to 119 °C
CC(=O)c1cc(-c2ccncc2)sc1N(C)Cc1ccccc1.Cl	199 to 202 °C
CC(=O)c1sc(-c2ccncc2)c(-c2ccncc2)c1C [Example 14, 2-Acetyl-3-methyl-4,5-di(4-pyridyl)thiophene]	140 to 142 °C
CC(=O)c1c(-c2ccncc2)sc(-c2ccncc2)c1C [Example 15, 3-Acetyl-4-methyl-2,5-di(4-pyridyl)thiophene]	137 to 138 °C
CCc1c(-c2ccncc2)oc2c1C(=O)CCC2(C)C [Example 11, 3-Ethyl-7,7-dimethyl-4-oxo-2-(4-pyridyl)-4,5,6,7-tetrahydrobenzofuran]	86 to 88 °C
Cc1c(-c2ccncc2)oc2c1C(=O)CCC2(C)C [Example 7, 4-Oxo-2-(4-pyridyl)-3,7,7-trimethyl-4,5,6,7-tetrahydrobenzofuran]	138 to 140 °C
CC(=O)c1c(C)oc(-c2ccncc2)c1C [Example 1, 3-Acetyl-2,4-dimethyl-5-(4-pyridyl)furan]	65 to 66.5 °C
Cc1c(-c2ccncc2)sc2c1C(=O)CCC2 [Example 20, 3-Methyl-4-oxo-2-(4-pyridyl)4,5,6,7-tetrahydrobenzothiophene]	129 to 130 °C
COC(=O)c1cc(-c2ccncc2)sc1-c1ccncc1 [Example 23, 2,5-Di(4-pyridyl)-3-methoxycarbonylthiophene]	133 to 135 °C
Cc1c(-c2ccncc2)sc(-c2ccncc2)c1C=NO.Cl.Cl	258 to 261 °C (dec.)
CC(=O)c1c(-c2ccccc2)oc(-c2ccncc2)c1C [Example 3, 3-Acetyl-4-methyl-2-phenyl-5-(4-pyridyl)furan]	108 to 110 °C
O=C1CCc2c(-c3ccncc3)sc(-c3ccncc3)c21 [Example 22, 1,3-Di(4-pyridyl)-5,6-dihydro-4H-cyclopenta(c)thiophen-4-one]	168 to 170 °C
CC(=O)c1c(CC(C)C)oc(-c2ccncc2)c1C.Cl	171 to 174 °C
O=C1CCCc2sc(-c3ccncc3)cc21 [Example 16, 4-Oxo-2-(4-pyridyl)-4,5,6,7-tetrahydro-benzo(b)thiophene]	156 to 158 °C

Results, then the compound that gave them:

melting point	SMILES
240 to 242 °C	NC(=O)c1cc(-c2ccncc2)sc1-c1ccncc1 [Example 59, 2,5-Di(4-pyridyl)-3-thiophenecarboxamide]
93 to 95 °C	O=C1CCCc2c(Cl)sc(-c3ccncc3)c21 [Example 45, 1-Chloro-3-(4-pyridyl)-4,5,6,7-tetrahydrobenzo(c)thiophen-4-one]
115 to 116 °C	CSc1sc(-c2ccncc2)c2c1C(=O)CCC2 [Example 47, 3-Methylthio-1-(4-pyridyl)-4,5,6,7-tetrahydrobenzo(c)thiophen-4-one]
98 to 100 °C	CC(=O)c1c(-c2ccsc2)sc(-c2ccncc2)c1C [Example 35, 3-Acetyl-4-methyl-5-(4-pyridyl)-2-(3-thienyl)thiophene]
158 to 160 °C	O=C1CCc2c(-c3ccncc3)sc(-c3ccc(C(F)(F)F)cc3)c21 [Example 66, 1-(4-Pyridyl)-3-(4-trifluoromethylphenyl)-5,6-dihydro-4H-cyclopenta(c)thiophene-4-one]
103 to 105 °C	CC(=O)c1cc(-c2ccncc2)sc1Oc1ccccc1 [Example 42, 3-Acetyl-2-phenoxy-5-(4-pyridyl)thiophene]
93 to 96 °C	CC(=O)c1cc(-c2ccncc2)sc1Oc1ccccc1F [Example 56, 3-Acetyl-2-(2-fluorophenoxy)-5-(4-pyridyl)thiophene]
119 to 121 °C	CC(=O)c1cc(-c2ccncc2)sc1Oc1cc(F)ccc1F [Example 57, 3-Acetyl-2-(2,5-difluorophenoxy)-5-(4-pyridyl)thiophene]
166.5 to 167 °C	CN(C)C(=O)CCc1cc(-c2ccncc2)sc1-c1ccncc1 [Example 49, N,N-Dimethyl-3-[2,5-di-(4-pyridyl)3-thienyl]propionamide]
171 to 173 °C	CC(=O)c1sc2sc(-c3ccncc3)c(C)c2c1C [Example 43, 2-Acetyl-3,4-dimethyl-5-(4-pyridyl)thieno[2,3-b]thiophene]
106 to 108 °C	CSc1ccc(-c2sc(-c3ccncc3)c(C)c2C(C)=O)cc1 [Example 36, 3-Acetyl-4-methyl-5-(4-pyridyl)-2-(4-methylthiophenyl)thiophene]
139 to 139.5 °C	Cc1c(-c2ccncc2)sc(-c2ccncc2)c1C=O [Example 34, 2,5-Di(4-pyridyl)-4-methylthiophene-3-carbaldehyde]
214 to 216 °C	O=C1CCc2c(-c3ccncc3)sc(-c3cccnc3)c21 [Example 63, 1-(4-Pyridyl)-3-(3-pyridyl)-5,6-dihydro-4H-cyclopenta(c)thiophene-4-one]
155 to 157 °C	O=C1CCc2c(-c3ccc(F)cc3)sc(-c3ccncc3)c21 [Example 67, 1-(4-Fluorophenyl)-3-(4-pyridyl)-5,6-dihydro-4H-cyclopenta(c)thiophene-4-one]
147 to 149 °C	CC(=O)c1cc(-c2ccncc2)sc1Oc1ccc(F)cc1 [Example 62, 3-Acetyl-2-(4-fluorophenoxy)-5-(4-pyridyl)thiophene]
193 to 195 °C	O=C1CCc2c(-c3ccncc3)sc(-c3ccc(F)cc3)c21 [Example 58, 3-(4-Fluorophenyl)-1-(4-pyridyl)-5,6-dihydro-4H-cyclopenta(c)thiophene-4-one]
148 to 148.5 °C	Cc1c(-c2ccncc2)sc(-c2ccncc2)c1CF [Example 65, 2,5-Di(4-pyridyl)-3-fluoromethyl-4-methylthiophene]
168 to 170 °C	O=C(c1ccccc1)c1cc(-c2ccncc2)sc1-c1ccncc1 [Example 33, 3-Benzoyl-2,5-di(4-pyridyl)thiophene]
157 to 160 °C	O=C1CCCc2c(-c3ccncc3)sc(-c3ccncc3)c21 [Example 41, 1,3-Di(4-pyridyl)-4,5,6,7-tetrahydrobenzo(c)thiophen-4-one]
139 to 142 °C	CC(C)OC(=O)c1cc(-c2ccncc2)sc1-c1ccncc1 [Example 60, 3-(Isopropyloxycarbonyl)-2,5-di(4-pyridyl)thiophene]
133 to 135 °C	O=C1CCc2c(-c3ccncc3)sc(-c3ccccc3F)c21 [Example 53, 3-(2-Fluorophenyl)-1-(4-pyridyl)-5,6-dihydro-4H-cyclopenta(c)thiophene-4-one]
196 to 196.5 °C	NC(=O)CCc1cc(-c2ccncc2)sc1-c1ccncc1 [Example 70, 3-[2,5-di-(4-pyridyl)3-thienyl]propionamide]
163 to 165 °C	O=C1CCc2c(Cl)sc(-c3ccncc3)c21 [Example 54, 1-Chloro-3-(4-pyridyl)-5,6-dihydro-4H-cyclopenta(c)thiophene-4-one]
197 to 199 °C	CNC(=O)c1cc(-c2ccncc2)sc1-c1ccncc1 [Example 52, N-Methyl-{2,5-di(4-pyridyl)thiophen-3-yl}carboxamide]
87 to 87.5 °C	CC(=O)c1csc(-c2ccncc2)c1C [Example 27, 4-Acetyl-3-methyl-2-(4-pyridyl)thiophene]
116 to 118 °C	CC(=O)c1c(-c2ccc(F)cc2)sc(-c2ccncc2)c1C [Example 32, 3-Acetyl-2-(4-fluorophenyl)-4-methyl-5-(4-pyridyl)thiophene]
115 to 117 °C	CC(=O)c1cc(-c2ccncc2)sc1N1CCN(C)CC1 [Example 38, 3-Acetyl-2-(4-methylpiperazin-1-yl)-5-(4-pyridyl)thiophene]
205 to 207 °C	N#Cc1cc(-c2ccncc2)sc1-c1ccncc1 [Example 29, 3-Cyano-2,5-di(4-pyridyl)thiophene]

Reference: US6696470B2, “Pyridylthiophene compounds” (Pfizer Inc., priority 1997, dated 2004)
